# Experimental data: patent US7601732B2, “Crystalline form of 5(S)-(2-hydroxyethoxy)-20(S)-camptothecin” (Dr. Reddy's Laboratories Limited, priority 2006, dated 2009)
# Read-outs that look alike come from different tables or passages of the source.
# Key:
# Topoisomerase I = target: T1, Topoisomerase I (Homo sapiens, UniProt P11387); assay: Topoisomerase I assay (TopoGEN Topo I Drug Screening Kit); format: biochemical
# T1 construct: purchased Topogen, Inc., Port Orange, Fla
# T1 sequence (P11387 1-765): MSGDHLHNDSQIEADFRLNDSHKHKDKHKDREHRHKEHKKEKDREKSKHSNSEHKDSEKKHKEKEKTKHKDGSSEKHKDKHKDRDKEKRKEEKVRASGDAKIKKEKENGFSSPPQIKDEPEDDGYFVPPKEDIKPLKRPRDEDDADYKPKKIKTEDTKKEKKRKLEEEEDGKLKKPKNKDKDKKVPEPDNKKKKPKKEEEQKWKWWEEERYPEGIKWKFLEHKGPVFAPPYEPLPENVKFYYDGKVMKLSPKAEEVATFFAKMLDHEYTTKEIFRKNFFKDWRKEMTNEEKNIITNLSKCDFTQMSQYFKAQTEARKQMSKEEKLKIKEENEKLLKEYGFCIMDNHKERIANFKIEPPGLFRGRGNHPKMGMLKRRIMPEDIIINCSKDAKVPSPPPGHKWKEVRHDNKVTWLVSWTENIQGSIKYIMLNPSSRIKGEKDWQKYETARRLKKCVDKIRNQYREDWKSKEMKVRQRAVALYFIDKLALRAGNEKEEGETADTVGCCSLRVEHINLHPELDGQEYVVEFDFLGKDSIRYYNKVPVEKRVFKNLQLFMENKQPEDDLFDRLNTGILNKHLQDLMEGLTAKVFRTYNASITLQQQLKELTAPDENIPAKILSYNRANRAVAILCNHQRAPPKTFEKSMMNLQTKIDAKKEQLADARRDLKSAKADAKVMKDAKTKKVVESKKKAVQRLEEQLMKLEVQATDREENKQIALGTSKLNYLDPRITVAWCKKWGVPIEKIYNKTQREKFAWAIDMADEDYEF
# Text: Topoisomerase I introduces transient nicks in DNA at specific sites. Detection of these transient DNA nicks requires trapping the enzyme on DNA in a nicked intermediate complex using protein denaturants. The resulting covalent DNA/topo I complexes contain nicked open circular DNA which can be detected by agarose gel electrophoresis (with ethidium bromide). Trapping nicked intermediates is relatively inefficient, however, inhibitors, such as the natural product camptothecin, stabilize the intermediate and lead to an increase in the nicked DNA product. This forms the basis for a mechanistic drug screen designed to allow detection of agents that affect topoisomerase I by stabilizing the cleaved intermediate complex.
# The TopoGEN® Topo I Drug Screening Kit (Topogen, Inc., Port Orange, Fla.) is designed to allow the investigator to quickly identify novel inhibitors of topoisomerase I. The kit allows the detection of novel compounds that either stabilize the nicked intermediate or otherwise inhibit catalytic activity of topoisomerase I.
# The above reaction mixture is incubated at 37° C. for 30 minutes. The reaction is terminated by adding 2 μl of 10% SDS and the mixture is vortexed rapidly (SDS should be added while at 37° C. as cooling the tubes might reseal the nicked DNA). 10× Dye, about 2.5 μl per tube, is added and equal volumes of a mixture of chloroform and isoamyl alcohol (24:1) is added and centrifuged at 13000 rpm for 10 minutes. Samples are loaded on a 1% agarose gel and electrophoresed for 1 hour at 80 volts. The gel was viewed on UV transilluminator and the densitometric estimation of the bands was calculated.
# The density of the DNA bands of both super coiled and relaxed forms of DNA was measured using the densitometer. The band intensity of treated (with single concentration of the test drug) and without the drug (i.e., the Control) were recorded. The percentage of relaxed form DNA compared to the supercoiled DNA was calculated for all the lanes including treated and control.
# % inhibition of Topoisomerase activity was calculated as: =(100−(100×(1/% inhibition in Control)×% inhibition in treated))
# in vivo [1] = assay: in vivo; design: species or system Swiss Albino mice; settings: Swiss Albino, mouse, po, 5 mg/kg
# Method: 5(S)-CPT (2.5 mg/kg) and 5(RS)-CPT (5 mg/kg, including 2.5 mg/kg of 5(S)-CPT in the mixture) were been administered to Swiss Albino mice to evaluate oral pharmacokinetics.
# (§1) Swiss Albino mice, 3-6 weeks of age and weighing between 28-34 g were used in the study. Twelve mice were used per study. The oral pharmacokinetics test was carried out in overnight fasted condition and intravenous pharmacokinetics was carried out in fed condition. The test drugs were administered as a solution by oral gavage or lateral tail vein injection. Sparse blood samples of about 250 microliters were collected from retro-orbital plexus at designated time points into microcentrifuge tubes containing 25 microliters of EDTA. Plasma was separated by centrifuging blood at 12,800 rpm for 2 min and refrigerated until analysis.
# (§2) Samples were tested for the presence of the test drug as follows. An aliquot of 100 μl plasma (stored at 8° C.) was precipitated with 400 μl of cold methanol for the estimation of total (lactone+carboxylate). […] Concentrations of the test drug were calculated from the linearity plotted by spiking known concentrations of the test drug in blank rat plasma. The pharmacokinetics of the test drug was calculated using non-compartmental analysis.
# [2] = system: Saos-2 cells over expressing functional BCRP#4; format: cell-based, human
# Method: (§3) The anticancer effect of 5(S)-CPT & 5(R)-CPT were evaluated versus the diastereoisomeric mixture 5(RS)-CPT on Saos-2 cells over expressing functional BCRP#4 and non-functional BCRP mut#10. The human osteosarcoma cell line, Saos-2, was obtained from ATCC (American Type Culture Collection, Cat#HTB-85, Manassas, Va.) and were maintained in DMEM containing 10% fetal bovine serum, 1% penicillin/streptomycin, and 2 mM glutamine. Saos-2 cells were transfected with either BCRP#4 to over express functional BCRP or BCRP#10 to over express non-functional BCRP transporter. The cells were plated in 96-well plates at a density of 1000 cells per each well in a 0.1 ml of medium and allowed to attach overnight. The next morning the medium was gently aspirated and serial dilutions of the compounds to be tested were added. The cells were incubated at 37° C. in a 5% CO2 incubator. After 6 days of exposure to the test drugs, 10 μl of Alamar blue was added aseptically to each well and the plates were returned to the incubator for 6 hr. The amount of the fluorescent dye produced was measured on a Cytofluor 2300(Millipore, Bedford, Mass.) using an excitation wavelength of 530 nm and emission wavelength of 590 nm. The relative fluorescence units obtained were used to calculate the percentage growth at each concentration in relation to the untreated control values. […]
# [3] = system: Saos-2 cells over expressing non-functional BCRP mut#10; format: cell-based, human
# Method: as §3
# [4] = format: physicochemical; settings: accelerated stability 40° C.±2° C./75% RH±5% RH for 6 months
# Method: The water content of crystalline 5(S)-CPT was measured by Mettler® DL 31 KF apparatus by using Karl Fischer reagent. A weighed quantity of crystalline 5(S)-CPT was transferred into a titration vessel of a Karl Fischer apparatus containing about 40 ml of previously neutralized methanol. The sample was dissolved with stirring, and was titrated with Karl Fisher Reagent to the end point under vigorous stirring. Water content was calculated as: […]
# The product is stable in 6 months accelerated conditions.
# In one embodiment, 5(S)-CPT is isolated in crystalline form, which exists substantially free from water (i.e., essentially anhydrous). The term “substantially free from water” means the presence of less than about 1.0% water w/w and even specifically less than about 0.5% water w/w as measured by Karl Fisher analysis or TGA. […] The product is stable for 6 months under accelerated stability testing conditions of 40° C.±2° C./75% RH±5% RH and stable for 24 months under long term stability testing conditions at 30° C.±2° C./65%±5% RH.
# [5] = system: Human bone marrow mononuclear cells; assay: Human bone marrow assay (CFU-GM colony inhibition); format: cell-based
# Method: Methocult™ GF (Cat No: H4534, Poietics, Biowhittakar, USA) medium comprising Methycellulose in Iscove's MDM, Fetal bovine serum, Bovine serum albumin, 2-Mercaptoethanol, L-Glutamine, rhStem cell factor, rhGM-CSF and rhIL-3 was used for the assay. Human bone marrow mononuclear cells (Cat No. 2M-125C, Poietics, Biowhittakar, USA) were mixed with Methocult™ GF and the cell density was adjusted to 3×10^5 cells/ml. From this preparation, 500 μL aliquots were made and 2.5 μL of 20× drug solution or vehicle was added to each aliquot and mixed thoroughly. 100 μL of clonogenic medium was plated into each well and the plates were allowed to gel at 4° C. for 15 minutes. Plates were incubated at 37° C. in a fully humidified atmosphere of 5% CO2 in an incubator for 14 days. CFU-GM colonies were counted under an inverted microscope as aggregates of 50 cells or more. The percentage colony inhibition was calculated using the following formula: 100−[(number of colonies in drug treated wells/Number of colonies in control wells)×100].
# [6] = system: NCI-H460 (human small cell lung carcinoma) xenografts; assay: NCI-H460 xenograft study in nude mice; format: in vivo; settings: oral, (d×5)2 schedule
# Method: Percentage tumor growth inhibition was calculated using the formula: Percentage Tumor growth inhibition=100−% T/C.
# The other parameter observed was mortality.
# in vivo [7] = assay: in vivo; design: species or system male Wistar rats; settings: male, Wistar, rat, po, 5 mg/kg
# Method: 5(S)-CPT (2.5 mg/kg) and 5(RS)-CPT (5 mg/kg, including 2.5 mg/kg of 5(S)-CPT in the mixture) were been administered to male Wistar Rats to evaluate oral pharmacokinetics.
# as §1, with “Male Wistar rats, 6-8” for “Swiss Albino mice, 3-6”, “205 and 218” for “28-34”, “divided into groups of four rats.” for “used in the study. Twelve mice were used per study.”
# as §2
Structure (SMILES),IC50 (Topoisomerase I) [µM],fold more active than 5(R)-CPT in inhibiting topoisomerase I (Topoisomerase I; versus 5(R)-CPT),times more active than 5(RS)-CPT in inhibiting topoisomerase I (Topoisomerase I; versus 5(RS)-CPT),AUC (in vivo [1]) [µM·h],fold more cytotoxic than 5(R)-CPT [2] [fold],fold more cytotoxic than 5(R)-CPT [3] [fold],change in water content (Karl Fisher analysis) [4],hygroscopicity [4],change in water content (Karl Fisher analysis) ([4]; listed as crystalline 5(S)-CPT),"GI90 for human bone marrow cells in vitro ([5]; human, 14 days) [µM]",Safety Margin (GI90/GI50) ([5]; ratio of GI90 for human cell toxicity to GI50 for anticancer activity),Mortality ([6]; 2 mg/kg),Mortality ([6]; 4 mg/kg),AUC (in vivo [7]) [µM·h],"Safety Margin (GI90/GI50) ([5]; human, 14 days)",% Tumor Growth Inhibition ([6]; 2 mg/kg) [%]
"CC[C@@]1(O)C(=O)OCc2c1cc1n(c2=O)[C@@H](OCCO)c2cc3ccccc3nc2-1 [5(S)-CPT, 5(S)-(2′-hydroxyethoxy)-20(S)-camptothecin]",1.06,about 21 fold,about 12 times,5.18,> 2.5,~6,no appreciable change,non-hygroscopic,No change,0.69,0.14,0/5,0/5,5.76,–,–
"CC[C@@]1(O)C(=O)OCc2c1cc1n(c2=O)[C@H](OCCO)c2cc3ccccc3nc2-1 [5(R)-CPT, 5(R)-(2′-hydroxyethoxy)-20(S)-camptothecin, reference compound]",22,–,–,–,–,–,–,–,–,0.89,–,–,–,–,0.06,–
"CC[C@@]1(O)C(=O)OCc2c1cc1n(c2=O)C(OCCO)c2cc3ccccc3nc2-1 (mixture of isomers) [5(RS)-CPT, 5(RS)-(2′-hydroxyethoxy)-20(S)-camptothecin, reference compound]",12.5,–,–,5.2,–,–,–,–,–,–,–,0/5,0/5,5.08,–,60
